Test results taken from PubChem BioAssay (NCI).
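At the GI50, growth is halved. The concentration for full growth arrest is given as TGI.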

What was measured:
Test in all cases: NCI tumour cell line growth inhibition, 384-well format
OVCAR-3 ovarian = tested on: OVCAR-3 ovarian
MOLT-4 leukemia = tested on: MOLT-4 leukemia
IGROV1 ovarian = tested on: IGROV1 ovarian
SF-268 CNS = tested on: SF-268 CNS
NCI-H322M lung = tested on: NCI-H322M lung
SK-MEL-28 melanoma = tested on: SK-MEL-28 melanoma
BT-549 breast = tested on: BT-549 breast
OVCAR-8 ovarian = tested on: OVCAR-8 ovarian
EKVX NSCLC = tested on: EKVX NSCLC
HS 578T breast = tested on: HS 578T breast
SK-OV-3 ovarian = tested on: SK-OV-3 ovarian
ACHN renal = tested on: ACHN renal
HL-60(TB) leukemia = tested on: HL-60(TB) leukemia
A498 renal = tested on: A498 renal
CAKI-1 renal = tested on: CAKI-1 renal
OVCAR-5 ovarian = tested on: OVCAR-5 ovarian
NCI-H522 lung = tested on: NCI-H522 lung
HT29 colon = tested on: HT29 colon
A549 NSCLC = tested on: A549 NSCLC
K-562 leukemia = tested on: K-562 leukemia
PC-3 prostate = tested on: PC-3 prostate
SF-539 CNS = tested on: SF-539 CNS
MDA-MB-435 melanoma = tested on: MDA-MB-435 melanoma
MALME-3M melanoma = tested on: MALME-3M melanoma
NCI-H226 lung = tested on: NCI-H226 lung
DU-145 prostate = tested on: DU-145 prostate
UACC-62 melanoma = tested on: UACC-62 melanoma
MDA-MB-468 breast = tested on: MDA-MB-468 breast
TK-10 renal = tested on: TK-10 renal
NCI-H23 lung = tested on: NCI-H23 lung
U251 glioblastoma = tested on: U251 glioblastoma
HCC-2998 colon = tested on: HCC-2998 colon
SNB-75 CNS = tested on: SNB-75 CNS
SNB-19 CNS = tested on: SNB-19 CNS
SK-MEL-5 melanoma = tested on: SK-MEL-5 melanoma
T-47D breast = tested on: T-47D breast
NCI-H460 NSCLC = tested on: NCI-H460 NSCLC
HCT-15 colon = tested on: HCT-15 colon
COLO 205 colon = tested on: COLO 205 colon
HOP-62 NSCLC = tested on: HOP-62 NSCLC
OVCAR-4 ovarian = tested on: OVCAR-4 ovarian
SF-295 CNS = tested on: SF-295 CNS
SR leukemia = tested on: SR leukemia
M14 melanoma = tested on: M14 melanoma
KM12 colon = tested on: KM12 colon
MDA-MB-231 breast = tested on: MDA-MB-231 breast
CCRF-CEM leukemia = tested on: CCRF-CEM leukemia
786-0 renal = tested on: 786-0 renal
RPMI-8226 leukemia = tested on: RPMI-8226 leukemia
SW-620 colon = tested on: SW-620 colon
NCI/ADR-RES ovarian = tested on: NCI/ADR-RES ovarian
RXF 393 renal = tested on: RXF 393 renal
SN12C renal = tested on: SN12C renal
UO-31 renal = tested on: UO-31 renal
UACC-257 melanoma = tested on: UACC-257 melanoma
HOP-92 NSCLC = tested on: HOP-92 NSCLC
LOX IMVI melanoma = tested on: LOX IMVI melanoma

Structure (SMILES): COc1ccc(-c2ccc3c(N4CCOC[C@@H]4C)nc(N4CCOC[C@@H]4C)nc3n2)cc1CO
- GI50 (OVCAR-3 ovarian): 0.0299 µM
- TGI (OVCAR-3 ovarian): 11.1 µM
- GI50 (MOLT-4 leukemia): 0.0179 µM
- TGI (MOLT-4 leukemia): 0.322 µM
- GI50 (IGROV1 ovarian): 0.0122 µM
- TGI (IGROV1 ovarian): 0.0569 µM
- GI50 (SF-268 CNS): 0.0629 µM
- TGI (SF-268 CNS): 12.9 µM
- GI50 (NCI-H322M lung): 0.0276 µM
- TGI (NCI-H322M lung): 11.1 µM
- GI50 (SK-MEL-28 melanoma): 0.0199 µM
- TGI (SK-MEL-28 melanoma): 0.436 µM
- GI50 (BT-549 breast): 0.0182 µM
- TGI (BT-549 breast): 0.192 µM
- GI50 (OVCAR-8 ovarian): 0.0462 µM
- TGI (OVCAR-8 ovarian): 11.6 µM
- GI50 (EKVX NSCLC): 0.0233 µM
- TGI (EKVX NSCLC): 0.583 µM
- GI50 (HS 578T breast): 0.0128 µM
- TGI (HS 578T breast): 0.0563 µM
- GI50 (SK-OV-3 ovarian): 0.0176 µM
- TGI (SK-OV-3 ovarian): 0.365 µM
- GI50 (ACHN renal): 0.0254 µM
- TGI (ACHN renal): 11.5 µM
- GI50 (HL-60(TB) leukemia): 0.322 µM
- TGI (HL-60(TB) leukemia): 12.8 µM
- GI50 (A498 renal): < 0.01 µM
- TGI (A498 renal): 0.0519 µM
- GI50 (CAKI-1 renal): 0.0316 µM
- TGI (CAKI-1 renal): 0.842 µM
- GI50 (OVCAR-5 ovarian): 0.0302 µM
- TGI (OVCAR-5 ovarian): 1.9 µM
- GI50 (NCI-H522 lung): 0.0229 µM
- TGI (NCI-H522 lung): 10 µM
- GI50 (HT29 colon): 0.102 µM
- TGI (HT29 colon): 14.7 µM
- GI50 (A549 NSCLC): 0.0204 µM
- TGI (A549 NSCLC): 6.35 µM
- GI50 (K-562 leukemia): 0.0563 µM
- TGI (K-562 leukemia): 13.2 µM
- GI50 (PC-3 prostate): 0.0161 µM
- TGI (PC-3 prostate): 10.2 µM
- GI50 (SF-539 CNS): 0.0322 µM
- TGI (SF-539 CNS): 11 µM
- GI50 (MDA-MB-435 melanoma): 0.0424 µM
- TGI (MDA-MB-435 melanoma): 0.562 µM
- GI50 (MALME-3M melanoma): < 0.01 µM
- TGI (MALME-3M melanoma): 0.0347 µM
- GI50 (NCI-H226 lung): 0.0179 µM
- TGI (NCI-H226 lung): 0.284 µM
- GI50 (DU-145 prostate): 0.0406 µM
- TGI (DU-145 prostate): 13.3 µM
- GI50 (UACC-62 melanoma): 0.0189 µM
- TGI (UACC-62 melanoma): 0.208 µM
- GI50 (MDA-MB-468 breast): 0.0152 µM
- TGI (MDA-MB-468 breast): 0.0567 µM
- GI50 (TK-10 renal): 0.0938 µM
- TGI (TK-10 renal): 0.749 µM
- GI50 (NCI-H23 lung): 0.06 µM
- TGI (NCI-H23 lung): 14.3 µM
- GI50 (U251 glioblastoma): 0.0872 µM
- TGI (U251 glioblastoma): 17.4 µM
- GI50 (HCC-2998 colon): 0.077 µM
- TGI (HCC-2998 colon): 14.9 µM
- GI50 (SNB-75 CNS): 0.0143 µM
- TGI (SNB-75 CNS): 0.207 µM
- GI50 (SNB-19 CNS): 0.249 µM
- TGI (SNB-19 CNS): 18.5 µM
- GI50 (SK-MEL-5 melanoma): 0.0105 µM
- TGI (SK-MEL-5 melanoma): 0.0891 µM
- GI50 (T-47D breast): < 0.01 µM
- TGI (T-47D breast): 0.0236 µM
- GI50 (NCI-H460 NSCLC): < 0.01 µM
- TGI (NCI-H460 NSCLC): 11.9 µM
- GI50 (HCT-15 colon): 0.0239 µM
- TGI (HCT-15 colon): 11.3 µM
- GI50 (COLO 205 colon): 0.0244 µM
- TGI (COLO 205 colon): 1.35 µM
- GI50 (HOP-62 NSCLC): 0.0292 µM
- TGI (HOP-62 NSCLC): 1.88 µM
- GI50 (OVCAR-4 ovarian): 0.0129 µM
- TGI (OVCAR-4 ovarian): 0.0953 µM
- GI50 (SF-295 CNS): 0.0122 µM
- TGI (SF-295 CNS): 0.0877 µM
- GI50 (SR leukemia): 0.0113 µM
- TGI (SR leukemia): 0.043 µM
- GI50 (M14 melanoma): 0.019 µM
- TGI (M14 melanoma): 10.5 µM
- GI50 (KM12 colon): 0.0294 µM
- TGI (KM12 colon): 11.4 µM
- GI50 (MDA-MB-231 breast): 0.0219 µM
- TGI (MDA-MB-231 breast): 11.1 µM
- GI50 (CCRF-CEM leukemia): 0.0149 µM
- TGI (CCRF-CEM leukemia): 1.82 µM
- GI50 ([…]-0 renal): 0.0422 µM
- TGI (786-0 renal): 12.1 µM
- GI50 (RPMI-8226 leukemia): < 0.01 µM
- TGI (RPMI-8226 leukemia): 0.01 µM
- GI50 (SW-620 colon): 0.12 µM
- TGI (SW-620 colon): 13.3 µM
- GI50 (NCI/ADR-RES ovarian): 0.102 µM
- TGI (NCI/ADR-RES ovarian): 26.7 µM
- GI50 (RXF 393 renal): 0.0273 µM
- TGI (RXF 393 renal): 12 µM
- GI50 (SN12C renal): 0.019 µM
- TGI (SN12C renal): 11.1 µM
- GI50 (UO-31 renal): 0.0818 µM
- TGI (UO-31 renal): 19 µM
- GI50 (UACC-257 melanoma): 0.0429 µM
- TGI (UACC-257 melanoma): 0.396 µM
- GI50 (HOP-92 NSCLC): 0.0191 µM
- TGI (HOP-92 NSCLC): 0.34 µM
- GI50 (LOX IMVI melanoma): 0.0316 µM
- TGI (LOX IMVI melanoma): 0.294 µM
